Values of other authors in patent US20210069213A1, “COMPOSITION AND METHOD OF TREATMENT FOR DRY A.M.D. (AGE RELATED MACULAR DEGENERATION)” (EYE CO PTY LTD, priority 2018, published 2021).

Biological target: T1, mineralocorticoid receptor (Homo sapiens, UniProt P08235)
T1 sequence (P08235 1-984): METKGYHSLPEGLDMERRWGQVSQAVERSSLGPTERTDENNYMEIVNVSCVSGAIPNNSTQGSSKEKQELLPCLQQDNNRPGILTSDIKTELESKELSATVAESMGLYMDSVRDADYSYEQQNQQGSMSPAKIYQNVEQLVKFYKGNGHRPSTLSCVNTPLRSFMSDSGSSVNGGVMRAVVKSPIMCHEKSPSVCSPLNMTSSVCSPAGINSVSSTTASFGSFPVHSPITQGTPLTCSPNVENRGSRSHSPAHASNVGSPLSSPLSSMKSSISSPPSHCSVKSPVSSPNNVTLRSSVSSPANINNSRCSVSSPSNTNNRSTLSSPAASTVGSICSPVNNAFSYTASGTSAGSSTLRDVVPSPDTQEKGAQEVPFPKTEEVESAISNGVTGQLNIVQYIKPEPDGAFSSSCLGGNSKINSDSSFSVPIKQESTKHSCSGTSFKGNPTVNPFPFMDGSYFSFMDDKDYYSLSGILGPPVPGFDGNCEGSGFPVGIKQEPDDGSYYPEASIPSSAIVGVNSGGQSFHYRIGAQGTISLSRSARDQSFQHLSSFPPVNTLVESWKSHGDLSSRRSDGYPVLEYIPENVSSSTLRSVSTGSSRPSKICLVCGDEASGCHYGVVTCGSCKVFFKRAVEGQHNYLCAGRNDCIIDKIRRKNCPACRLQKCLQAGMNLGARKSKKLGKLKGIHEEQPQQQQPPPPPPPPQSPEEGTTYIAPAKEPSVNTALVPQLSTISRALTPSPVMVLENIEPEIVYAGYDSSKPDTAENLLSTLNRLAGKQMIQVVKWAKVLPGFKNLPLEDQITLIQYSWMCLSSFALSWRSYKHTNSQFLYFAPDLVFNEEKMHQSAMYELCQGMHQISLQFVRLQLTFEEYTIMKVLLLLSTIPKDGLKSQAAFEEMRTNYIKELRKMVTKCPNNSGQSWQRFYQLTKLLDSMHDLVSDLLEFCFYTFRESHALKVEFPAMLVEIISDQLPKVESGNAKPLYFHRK
Settings: Table 1; hydrocortisone (cortisol) = 1; cited from earlier work

CC(=O)OCC(=O)[C@@]1(O)CC[C@H]2[C@@H]3CCC4=CC(=O)CC[C@]4(C)[C@@]3(F)[C@@H](O)C[C@@]21C [Fludrocortisone acetate, 9-α-Fiuoro-11 β. 17 α, 21-trihydroxy-4-pregnene-3, 20 dione acetate]
MR potency: 200
